Experimental data: patent publication US20160022605A1, “METHODS FOR REDUCING MICROSATELLITE INSTABILITY INDUCED BY CHEMOTHERAPY AND METHODS FOR SCREENING ANTIOXIDANTS THAT SUPPRESS DRUG-INDUCED MICROSATELLITE INSTABILITY WHILE ENHANCING THE CYTOTOXICITY OF CHEMOTHERAPEUTIC AGENTS” (priority 2014, published 2016)
“Also recorded” adds a separate entry of the source.

Experiments:
HCT116-(CA)13 cells [1] = assay: Cell viability (MTT assay) with drug and antioxidant co-treatment; conditions: for effect on methotrexate-mediated cytotoxicity (in words): 25 nM methotrexate with NAC, GSH or vitamin C
Description: (§1) Cell viability was determined by the MTT assay. Briefly, the optical density of colored formazan converted from MTT by viable cells was determined as previously described [Chang et al., 2002] at 595 nm with an ELISA reader (Thermo Labsystems). Cell viability is expressed as the optical density value of drug-treated cells relative to that of solvent-treated cells, after subtracting the background from the medium.

HCT116-(CA)13 cells [2] = conditions: for suppression of methotrexate-induced MSI: 25 nM methotrexate with 2.5 mM NAC, 250 μM vitamin C or 1.5 μM curcumin; for suppression of methotrexate-induced MSI / suppression of CCNU-induced MSI: 5 mM GSH; for suppression of CCNU-induced MSI: 50 μM CCNU with 2.5 mM NAC, 250 μM vitamin C, 1.5 μM curcumin or 150 μM eugenol
Description: After treatment, HCT116-(CA)13 cells in 96-well glass plates (Corning-Costar®) were fixed with 4% paraformaldehyde and nuclei were stained with 1 μg/ml Hoechst 33258. Fluorescent images of the cells were acquired at 100× magnification by ImageXpress^Micro system (Molecular Devices) and analyzed with MetaXpress® V3.1 software as described previously [Li et al., 2014]. The frequency of frameshift mutations of the (CA)13 microsatellite is expressed as the percentage of the DsRed^+GFP^+Hoechst^+ subpopulation in the GFP^+Hoechst^+ population.

HCT116 cells [3] = assay: Fluoresceinated PCR-based assay of endogenous microsatellites (Bethesda panel); assay type: cell-based, human; conditions: 3-day recovery
Description: Genomic DNA was isolated from HCT116 derivatives in 12-well plates with EasyPure Genomic DNA mini kit. The isolated DNA were amplified with fluoresceinated primers specific for the Bethesda panel of microsatellite [Boland et al., 1998] and selected coding microsatellites as described previously [Li et al., 2014]. Fluoresceinated PCR products were analyzed by the ABI 310 genetic analyzer, and electropherograms were generated with GeneScan Collection software (ABI).

HCT116-(CA)13 cells [4] = assay: Frameshift mutation (MSI) analysis by flow cytometry with dual-fluorescent reporter; conditions: for MSI induction (in words): HCT116 derivatives, single drug; for mutation frequency: 3-day treatment, 3-day recovery, untreated 0.46±0.04%
Description: (§2) Specified cells were seeded at 1×10^4 or 1×10^5 cells per well in 96-well or 12-well plates respectively. One day after seeding, the cells were treated in triplicates for 3 days with a tested drug in the presence or absence of an antioxidant at indicated concentrations. Subsequently, the drug and/or antioxidant were removed and cells were washed and recovered in fresh growth medium for 3 days before being subjected to analyses. […] On the other hand, PBS was used to make 0.5 M vitamin C stock, saline for making 0.5 M NAC and 0.1 M GSH stocks, and DMSO for making 10 mM curcumin and 10 mM eugenol. Prior to the experiments, PBS was used for diluting the drugs and antioxidants and the final solvent concentration was kept the same for all tested compounds, including untreated controls.
At the end of treatment, adherent cells in 12-well plates were trypsinized and resuspended in PBS containing 1 mM EDTA, and filtered through a 40-μm strainer, and then subjected to flow cytometry (Quanta™ SC-MPL, Beckman Coulter). […] The frequency of frameshift mutations is expressed as the percentage of DsRed^+GFP^+ subpopulation in the GFP^+ cell population.

HCT116 cells [5] = assay: Intracellular ROS assay (DCDHF-DA, flow cytometry); assay type: cell-based, human; conditions: 3-day treatment, 3-day recovery; 10 μM 5-FU, 25 nM methotrexate, 50 μM CCNU, 1 μM oxaliplatin
Description: Intracellular ROS levels were measured using an oxidation-sensitive 2′,7′-dichlorodihydrofluorescein diacetate (DCDHF-DA) probe, which can be oxidized to the fluorescent 2′,7′-dichloro-fluorescein (DCF) product. After treatment, HCT116 derivatives in 12-well plates were harvested, washed and resuspended in PBS containing 10 μM DCDHF-DA, followed by 30-min incubation at 37° C. in the dark before being subjected to flow cytometry (Quanta SC-MPL). For a ROS curve of H2O2, 2×10^5 HCT116 derivatives were detached, washed, and incubated with 10 μM DCDHF-DA for 30 min at 37° C., followed by flow cytometric analysis after 30-min exposure to different concentrations of H2O2. After excluding cell debris on the basis of electronic volume and side scatter, the fluorescence intensity of DCF was measured in fluorescence channel 1 of the flow cytometer (λex: 488 nm; λem: 525 nm). The ROS level is expressed as the mean fluorescence intensity (MFI) of DCF from 10,000 cells per sample.

HCT116-(CA)13 cells [6] = assay: REDOX library screen by high-content microscopy (MSI frequency and cell numbers); assay type: cell-based, human; conditions: 1 μM oxaliplatin, additional concentrations, 3-day co-treatment, 3-day recovery
Description: The REDOX library (Cat# BML-2835, ENZO, USA) is composed of 84 compounds that were supplied at 10 mM in DMSO. HCT116-(CA)13 cells were seeded at 1×10^4 cells per well in 96-well glass plates containing 100 μl growth medium. One day after seeding, the cells were co-treated with 1 μM oxaliplatin and an antioxidant at specified concentrations in triplicate for three days, followed by a 3-day recovery in fresh growth medium without the drug and antioxidants.

HCT116+chr3-(CA)13 cells = assay: MSI analysis by high-content microscopy in MMR-proficient cells; assay type: cell-based, human; conditions: 3-day treatment (50 μM CCNU, 5 μM etoposide, 25 nM vinblastine), 3-day recovery; base line 0.35%
Description: as §2

HCT116+chr3 cells = assay: MTT assay in MMR-proficient cells; conditions: MMR-proficient HCT116+chr3, 1 μM oxaliplatin with 2-10 μM antioxidant, 3-day co-treatment
Description: as §1

HCT116 cells [7] = assay: MTT assay, oxaliplatin co-treatment in MMR-deficient cells; conditions: MMR-deficient HCT116, 1 μM oxaliplatin with 2-10 μM antioxidant, 3-day co-treatment
Description: as §1

[8] = 5 μM etoposide with 250 μM vitamin C
[9] = 1-day treatment, 100 μM CCNU or 100 nM methotrexate
[10] = 3-day treatment, 10 μM 5-FU, 5 μM etoposide, 25 nM vinblastine, 50 μM CCNU, 25 nM methotrexate, 1 μM oxaliplatin

`O=C1O[C@H]([C@@H](O)CO)C(O)=C1O` [vitamin C] was tested, and the “effect on methotrexate-mediated cytotoxicity (in words)” value (HCT116-(CA)13 cells [1]) was “without affecting drug cytotoxicity”, the “enhancement of etoposide-mediated cytotoxicity” value (HCT116-(CA)13 cells [1]; [8]) was roughly 10% and the “effect on CCNU-mediated cytotoxicity (in words)” value (HCT116-(CA)13 cells [1]; 50 μM CCNU with 250 μM vitamin C) was “without significantly affecting drug cytotoxicity”. For the same compound, the “suppression of methotrexate-induced MSI” value (HCT116-(CA)13 cells [2]) was 12%, the “suppression of etoposide-induced MSI” value (HCT116-(CA)13 cells [2]; [8]) was roughly 40% and the “suppression of CCNU-induced MSI” value (HCT116-(CA)13 cells [2]) was roughly 24%.
For `CN(Cc1cnc2nc(N)nc(N)c2n1)c1ccc(C(=O)N[C@@H](CCC(=O)O)C(=O)O)cc1` [methotrexate, (2S)-2-[[4-[(2,4-diaminopteridin-6-yl)methyl-methylamino]benzoyl]amino] pentanedioic acid], the “instability of Bethesda panel microsatellite markers” value (“instability” below) (HCT116 cells [3]; [9]) was “caused the instability of BAT25 and/or BAT26 microsatellites”, the “instability” value (HCT116 cells [3]; [10]) was “failed to detect alterations” and the “MSI induction (in words)” value (HCT116-(CA)13 cells [4]) was “induced MSI”. For the same compound, the “intracellular ROS levels” value (HCT116 cells [5]) was “but not 25 nM methotrexate increased intracellular ROS levels”.
In the case of `C=CCc1ccc(O)c(OC)c1` [eugenol], the “suppression of vinblastine-induced MSI” value (HCT116-(CA)13 cells [2]; 25 nM vinblastine with 150 μM eugenol) is reported as 40% and the “suppression of CCNU-induced MSI” value (HCT116-(CA)13 cells [2]) is reported as “approximately 55%”.
`CC(=O)N[C@@H](CS)C(=O)O` [NAC, N-acetylcysteine] was tested, and the “effect on methotrexate-mediated cytotoxicity (in words)” value (HCT116-(CA)13 cells [1]) was “without affecting drug cytotoxicity”, the “effect on oxaliplatin-mediated cytotoxicity (in words)” value (HCT116-(CA)13 cells [1]; 1 μM oxaliplatin with 2.5 mM NAC, 5 mM GSH or 150 μM eugenol) was “totally abolished” and the “decrease of CCNU-mediated cytotoxicity” value (HCT116-(CA)13 cells [1]; 50 μM CCNU with 2.5 mM NAC or 5 mM GSH) was “approximately 25%”. For the same compound, the “suppression of methotrexate-induced MSI” value (HCT116-(CA)13 cells [2]) was 34%.
In the case of `O=c1[nH]cc(F)c(=O)[nH]1` [5-FU, 5-fluoro-1H-pyrimidine-2,4-dione], the “instability” value (HCT116 cells [3]; [10]) is reported as “induced the instability of the BAT25 microsatellite”, the mutation frequency (HCT116-(CA)13 cells [4]; 2.5 μM) is reported as 5.91±0.49% and the mutation frequency (HCT116-(CA)13 cells [4]; 5 μM) is reported as 6.37±0.96%. For the same compound, the mutation frequency (HCT116-(CA)13 cells [4]; 10 μM) was 8.05±2.01%, the “susceptibility of (CA)13 microsatellite to drug-induced mutations compared to (N)16 random sequence” value (HCT116-(CA)13 cells [4]; 5-FU 2.5-10 μM, HCT116-(CA)13 vs HCT116-(N)16) was 1.2-2.8 fold and the “MSI induction (in words)” value (HCT116-(CA)13 cells [4]) was “induced MSI”. For the same compound, the “intracellular ROS levels” value (HCT116 cells [5]) was “increased intracellular ROS levels”.
For `CCCCCCCCOC(=O)/C=C/c1ccc(O)c(O)c1` [n-octyl caffeate, Octyl 3-(3,4-dihydroxyphenyl)prop-2-enoate], the “outcome of secondary screen: oxaliplatin-induced MSI and oxaliplatin-mediated cytotoxicity” value (shortened to “outcome of secondary screen”) (HCT116-(CA)13 cells [6]) was “most promising antioxidants”.
In the case of `COc1cc([C@@H]2c3cc4c(cc3[C@@H](O[C@@H]3O[C@@H]5CO[C@@H](C)O[C@H]5[C@H](O)[C@H]3O)[C@H]3COC(=O)[C@H]23)OCO4)cc(OC)c1O` [etoposide, (5S,5aR,8aR,9R)-5-[[(2R,4aR,6R,7R,8R,8aS)-7,8-dihydroxy-2-methyl-4,4a,6,7,8,8a-hexahydropyrano[3,2-d][1,3]dioxin-6-yl]oxy]-9-(4-hydroxy-3,5-dimethoxyphenyl)-5a,6,8a,9-tetrahydro-5H-[2]benzofuro[6,5-f][1,3]benzodioxol-8-one], the “instability” value (HCT116 cells [3]; [10]) is reported as “destabilized the BAT26 microsatellite” and the MSI frequency (HCT116+chr3-(CA)13 cells) is reported as 3.74%.
In the case of `N[C@@H](CCC(=O)N[C@@H](CS)C(=O)NCC(=O)O)C(=O)O` [GSH, glutathione], the “suppression of methotrexate-induced MSI” value (HCT116-(CA)13 cells [2]) is reported as 13%.
`Cc1cc2c(C(C)C)c(O)c(O)c(C=O)c2c(O)c1-c1c(C)cc2c(C(C)C)c(O)c(O)c(C=O)c2c1O` [gossypol, 7-(8-formyl-1,6,7-trihydroxy-3-methyl-5-propan-2-ylnaphthalen-2-yl)-2,3,8-trihydroxy-6-methyl-4-propan-2-ylnaphthalene-1-carbaldehyde] was tested, and the “effect on oxaliplatin-mediated cytotoxicity” value (HCT116+chr3 cells) was “enhanced oxaliplatin-mediated cytotoxicity in a concentration-dependent manner”, the “effect on oxaliplatin-mediated cytotoxicity” value (HCT116 cells [7]) was “enhanced oxaliplatin-mediated cytotoxicity in a concentration-dependent manner” and the “outcome of secondary screen” value (HCT116-(CA)13 cells [6]) was “most promising antioxidants; also recorded: suppress oxaliplatin-induced MSI while enhancing oxaliplatin-mediated cytotoxicity”.
`COc1cc(/C=C/C(=O)CC(=O)/C=C/c2ccc(O)c(OC)c2)ccc1O` [curcumin, (1E,6E)-1,7-bis(4-hydroxy-3-methoxyphenyl)hepta-1,6-diene-3,5-dione] was tested, and the “effect on oxaliplatin-mediated cytotoxicity” value (HCT116+chr3 cells) was “did not show a significant effect”, the “effect on oxaliplatin-mediated cytotoxicity” value (HCT116 cells [7]) was “did not show a significant effect” and the “outcome of secondary screen” value (HCT116-(CA)13 cells [6]) was “most promising antioxidants”. The “suppression of methotrexate-induced MSI” value (HCT116-(CA)13 cells [2]) was “did not affect methotrexate-induced MSI” and the “suppression of CCNU-induced MSI” value (HCT116-(CA)13 cells [2]) was “approximately 55%”.
For `O=NN(CCCl)C(=O)NC1CCCCC1` [CCNU, 1-(2-chloroethyl)-3-cyclohexyl-1-nitrosourea], the “alteration of D5S346” value (HCT116 cells [3]; 100 μM CCNU, 1-day treatment) was 1-bp insertion in a non-repetitive region of D5S346, the “instability” value (HCT116 cells [3]; [9]) was “caused the instability of BAT25 and/or BAT26 microsatellites” and the “instability” value (HCT116 cells [3]; [10]) was “failed to detect alterations”. For the same compound, the “MSI induction (in words)” value (HCT116-(CA)13 cells [4]) was “induced MSI”, the MSI frequency (HCT116+chr3-(CA)13 cells) was 1.26% and the “intracellular ROS levels” value (HCT116 cells [5]) was “generated the highest ROS level”.
In the case of `O=c1cc(-c2ccccc2)oc2cc(O)c(O)c(O)c12` [baicalein, 5,6,7-trihydroxy-2-phenylchromen-4-one], the “outcome of secondary screen” value (HCT116-(CA)13 cells [6]) is reported as “most promising antioxidants”.
In the case of `N[C@@H]1CCCC[C@H]1N.O=C(O)C(=O)O.[Pt]` [oxaliplatin, (1R,2R)-cyclohexane-1,2-diamine;oxalic acid;platinum], the “instability” value (HCT116 cells [3]; [10]) is reported as “alterations of four out of five microsatellite markers”, the “MSI induction (in words)” value (HCT116-(CA)13 cells [4]) is reported as “strong MSI-inducing; also recorded: induced MSI” and the “intracellular ROS levels” value (HCT116 cells [5]) is reported as “intermediate ROS-generating abilities”.
In the case of `CC[C@]1(O)C[C@@H]2CN(CCc3c([nH]c4ccccc34)[C@@](C(=O)OC)(c3cc4c(cc3OC)N(C)[C@H]3[C@@](O)(C(=O)OC)[C@H](OC(C)=O)[C@]5(CC)C=CCN6CC[C@]43[C@@H]65)C2)C1` [vinblastine], the “instability” value (HCT116 cells [3]; [10]) is reported as “destabilized the BAT26 microsatellite”, the “MSI induction (in words)” value (HCT116-(CA)13 cells [4]) is reported as “induced MSI” and the MSI frequency (HCT116+chr3-(CA)13 cells) is reported as 2.10%.
In the case of `Cc1cc(C2CCCCC2)n(O)c(=O)c1` [ciclopirox ethanolamine, 2-aminoethanol;6-cyclohexyl-1-hydroxy-4-methylpyridin-2-one], the “outcome of secondary screen” value (HCT116-(CA)13 cells [6]) is reported as “most promising antioxidants”.
With `N#CC(=Cc1ccc(O)c(O)c1)C(=O)OC/C=C/c1ccccc1` (stereo in doubt) [CDC, [(E)-3-phenylprop-2-enyl] (Z)-2-cyano-3-(3,4-dihydroxyphenyl)prop-2-enoate] the “outcome of secondary screen” value (HCT116-(CA)13 cells [6]) was “most promising antioxidants”.
